According to patent US6630499B1, “Control of arthropods in animals” (Aventis CropScience, S.A., priority 1998, dated 2003):

Assays:
Type in all cases: in vivo
[1] = system: cat fleas (Ctenocephalides felis); experiment: Control of cat fleas on treated dogs (Biological Examples 1-3); settings: 10 mg/kg; for % Control 1 DPT (Fleas/Ticks): Fleas: dogs, 30 mg/mL in 1:1 dimethyl sulfoxide/corn oil, 1 day post-treatment, versus placebo group
Method: (§1) All dogs were infested with cat fleas (Ctenocephalides felis) and with ticks (Rhipicephalus sanguineus) 1 day prior to administration of the compound. Cats were only infested with fleas. The initial flea and tick counts were performed 1 day after the administration of the compounds. At 7, 14, 21 and 28 days after treatment the dogs were re-infested with ticks and 8, 15, 22 and 29 days after treatment the dogs and cats were re-infested with fleas. At 1, 9, 16, 23 and 30 days after treatment the control of fleas and ticks in treated dogs and cats was determined versus a group of infested dogs and cats which received a placebo consisting of a 1:1 volume/volume solution of dimethyl sulfoxide and corn oil. To determine the efficacies of the compounds, the arthropods were combed from the animals and counted.
(§2) The compounds listed below were formulated and tested as described in Biological Example 1, again at the dosage level of active ingredient of 10 mg/kg in dogs and 20 mg/kg in cats. Results at 1 DPT (day post-treatment) are tabulated below, where the compound numbers are the same as those listed in Tables 1, 2, 4, 5, 6, 7, 8, 9, 10, 11, 12 and 13 hereinabove.
(§3) Testing was carried out as described in Biological Example 1. […] The Huang et al compound was deemed to have insufficient activity to be tested in cats.

[2] = system: cat fleas (Ctenocephalides felis); experiment: Control of cat fleas on treated cats (Biological Examples 1-3); settings: cats, 20 mg/kg, 30 mg/mL in 1:1 dimethyl sulfoxide/corn oil, 1 day post-treatment, versus placebo group
Method: as §1, §2, §3

Emesis in treated cats = settings: cats, 20 mg/kg
Method: (§4) By the term “emesis” is meant vomiting. Generally an emetic substance elicits emesis in less than 24 hours after administration, usually less than 8 hours, more usually less than 2 hours. By the term “substantially non-emetic” is meant that, generally, when a compound or composition of the invention is administered to a population of animals, more than 70% (or at least ⅔) of the animals are free of emesis. Preferably, more than 80%, most preferably more than 90%, of said population is free of emesis.
(§5) In the animals treated with the compounds above, there was substantially no emesis after 2, 8 and 24 hours. Generally long-term control of fleas and ticks was provided in dogs. In the cats treated, there was commercially acceptable control of fleas for at least one day post treatment.
as §2

Emesis in treated dogs = settings: 10 mg/kg; for % Emesis: dogs
Method: as §4, §5, §2

[3] = system: ticks (Rhipicephalus sanguineus); experiment: Control of ticks on treated dogs (Biological Examples 1-3); settings: 10 mg/kg; for % Control 1 DPT (Fleas/Ticks): Ticks: dogs, 30 mg/mL in 1:1 dimethyl sulfoxide/corn oil, 1 day post-treatment, versus placebo group
Method: as §1, §2, §3

Structure (SMILES): CCOCC(=O)N(C)c1c(S(=O)(=O)C(F)(F)F)c(C#N)nn1-c1c(Cl)cc(C(F)(F)F)cc1Cl [Compound 3-5]
- % Control 1 DPT (Fleas/Ticks): Fleas [1]: 100/100%
- % Control 1 DPT (Fleas) [2]: 100%
- % Emesis (Emesis in treated cats): 0%
- % Emesis (Emesis in treated dogs): 33%
- % Control 1 DPT (Fleas/Ticks): Ticks [3]: 100/100%

Structure (SMILES): CC(=O)OCC(=O)N(C)c1c(SC(F)(F)F)c(C#N)nn1-c1c(Cl)cc(C(F)(F)F)cc1Cl [Compound 36-1]
- % Control 1 DPT (Fleas/Ticks): Fleas [1]: 71%
- % Control 1 DPT (Fleas) [2]: 100%
- % Emesis (Emesis in treated cats): 25%
- % Emesis (Emesis in treated dogs): 0%
- % Control 1 DPT (Fleas/Ticks): Ticks [3]: 92%

Structure (SMILES): CN(C(=O)C1CCCCO1)c1c(SC(F)(F)F)c(C#N)nn1-c1c(Cl)cc(C(F)(F)F)cc1Cl (racemic) [Compound 121-1]
- % Control 1 DPT (Fleas) [2]: 100%
- % Emesis (Emesis in treated cats): 0%

Structure (SMILES): N#Cc1nn(-c2c(Cl)cc(C(F)(F)F)cc2Cl)c(N=CNCC(F)(F)F)c1SC(F)(F)F [Compound 211-1]
- % Control 1 DPT (Fleas/Ticks): Fleas [1]: 99%
- % Emesis (Emesis in treated dogs): 0%
- % Control 1 DPT (Fleas/Ticks): Ticks [3]: 51%

Structure (SMILES): CCCC(=O)N(C)c1c(SC(F)(F)F)c(C#N)nn1-c1c(Cl)cc(C(F)(F)F)cc1Cl [Compound 124-1]
- % Control 1 DPT (Fleas) [2]: 92%
- % Emesis (Emesis in treated cats): 0%

Structure (SMILES): CCOCCC(=O)N(C)c1c(SC(F)(F)F)c(C#N)nn1-c1c(Cl)cc(C(F)(F)F)cc1Cl [Compound 38-1]
- % Control 1 DPT (Fleas) [2]: 87%
- % Emesis (Emesis in treated cats): 0%

Structure (SMILES): N#Cc1nn(-c2c(Cl)cc(C(F)(F)F)cc2Cl)c(N=CNCc2ccccc2)c1SC(F)(F)F [Compound 224]
- % Control 1 DPT (Fleas/Ticks): Fleas [1]: 38%
- % Emesis (Emesis in treated dogs): 0%
- % Control 1 DPT (Fleas/Ticks): Ticks [3]: 6%

Structure (SMILES): COCC(=O)Nc1c(SC(F)(F)F)c(C#N)nn1-c1c(Cl)cc(C(F)(F)F)cc1Cl [Huang et al compound, 1-(2,6-dichloro-4-trifluoromethylphenyl)-3-cyano-4-trifluoromethylthio-5-(methoxyacetamido)pyrazole, reference compound]
- control of fleas after 9 DPT ([1]; group of 3 dogs, 9 DPT): < 50%
- emesis (Emesis in treated dogs; group of 3 dogs): no emesis (0/3)
- control of ticks after 9 DPT ([3]; group of 3 dogs, 9 DPT): < 50%

Structure (SMILES): COCCC(=O)N(C)c1c(SC(F)(F)F)c(C#N)nn1-c1c(Cl)cc(C(F)(F)F)cc1Cl [Compound 37-1]
- % Control 1 DPT (Fleas) [2]: 76%
- % Emesis (Emesis in treated cats): 0%

Structure (SMILES): N#Cc1nn(-c2c(Cl)cc(C(F)(F)F)cc2Cl)c(N(CC2CC2)C(=O)C2CCCO2)c1SC(F)(F)F (centres unmarked) [Compound 7-7]
- % Control 1 DPT (Fleas/Ticks): Fleas [1]: 29%
- % Emesis (Emesis in treated dogs): 0%
- % Control 1 DPT (Fleas/Ticks): Ticks [3]: 66%

Structure (SMILES): CCOC(C)(C)C(=O)N(C)c1c(SC(F)(F)F)c(C#N)nn1-c1c(Cl)cc(C(F)(F)F)cc1Cl [Compound 119-1]
- % Control 1 DPT (Fleas) [2]: 99%
- % Emesis (Emesis in treated cats): 0%

Structure (SMILES): CCOC(C)C(=O)N(C)c1c([S+]([O-])C(F)(F)F)c(C#N)nn1-c1c(Cl)cc(C(F)(F)F)cc1Cl (mixture of isomers) [Compound 122-1]
- % Control 1 DPT (Fleas/Ticks): Fleas [1]: 100%
- % Emesis (Emesis in treated dogs): 0%
- % Control 1 DPT (Fleas/Ticks): Ticks [3]: 95%

Structure (SMILES): CN(C(=O)C1CC1)c1c(SC(F)(F)F)c(C#N)nn1-c1c(Cl)cc(C(F)(F)F)cc1Cl [Compound 117-1]
- % Control 1 DPT (Fleas) [2]: 45%
- % Emesis (Emesis in treated cats): 0%

Structure (SMILES): CCOCC(=O)N(CC1CC1)c1c(S(=O)(=O)C(F)(F)F)c(C#N)nn1-c1c(Cl)cc(C(F)(F)F)cc1Cl [Compound 28-5]
- % Control 1 DPT (Fleas/Ticks): Fleas [1]: 100%
- % Emesis (Emesis in treated dogs): 0%
- % Control 1 DPT (Fleas/Ticks): Ticks [3]: 74%

Structure (SMILES): CN(C(=O)C1CCCO1)c1c(SC(F)(F)F)c(C#N)nn1-c1c(Cl)cc(C(F)(F)F)cc1Cl [(S)1-7]
- % Control 1 DPT (Fleas) [2]: 99%
- % Emesis (Emesis in treated cats): 0%

Structure (SMILES): CN(C(=O)C1CCCO1)c1c(SC(F)(F)F)c(C#N)nn1-c1c(Cl)cc(C(F)(F)F)cc1Cl [(R)1-7]
- % Control 1 DPT (Fleas) [2]: 100%
- % Emesis (Emesis in treated cats): 0%

Structure (SMILES): CCCOC(=O)N(CCC)c1c(SC(F)(F)F)c(C#N)nn1-c1c(Cl)cc(C(F)(F)F)cc1Cl [Compound 78-1]
- % Control 1 DPT (Fleas/Ticks): Fleas [1]: 96%
- % Emesis (Emesis in treated dogs): 0%
- % Control 1 DPT (Fleas/Ticks): Ticks [3]: 94%
